The values below come from ChEMBL document CHEMBL3797042, “Hybrid Pyrrole-Imidazole Alkaloids from the Sponge Agelas sceptrum” (J Nat Prod, 2016).

Broadly, the MIC is the smallest concentration in the dilution series that meets the test's criterion for growth inhibition. As a reminder, the IC90 is the concentration at which the effect reaches the 90% level. In general, IC50 refers to the point on the concentration scale where inhibition reaches its midpoint.

Data set [1] concerns Pseudomonas aeruginosa. The data set is described as follows: Antimicrobial activity against Pseudomonas aeruginosa after 24 hrs by microdilution method. It counts as functional, organism-based. (Broth dilution looks for growth in wells or tubes with falling amounts of substance.)
For data set [2], the system named is Micrococcus luteus. Nature of the data set: Antimicrobial activity against Micrococcus luteus after 24 hrs by microdilution method. Type of data set: functional.
Data set [3] relates to MCF7. Nature of the data set: Cytotoxicity against human MCF7 cells after 5 days by WST-1 assay. It counts as functional, cell-based. (In general: Tetrazolium assays rely on reduction of a dye to a coloured formazan, in cell work by metabolically active cells.)
Data set [4] deals with Staphylococcus aureus. Nature of the data set: Antimicrobial activity against methicillin-resistant Staphylococcus aureus after 24 hrs by microdilution method. It counts as functional, organism-based.
For data set [5], the system named is L929. The data set is described as follows: (§1) Cytotoxicity against mouse L929 cells after 5 days by WST-1 assay. Type of data set: cell-based. The settings on record: for IC90: mouse, l929, 120 h.
A short description of data set [6]: Cytotoxicity against human FS4-LTM cells after 24 hrs by WST-1 assay. Type of data set: cell-based. The settings on record: for IC90: human, 24 h.
A short description of data set [7]: (§2) Cytotoxicity against human KB3-1 cells after 5 days by WST-1 assay. Type of data set: functional, cell-based, KB 3-1.
Data set [8] relates to Staphylococcus aureus. The data set is described as follows: Antimicrobial activity against methicillin-sensitive Staphylococcus aureus after 24 hrs by microdilution method. It counts as functional, organism-based.
The test system of data set [9] is Candida albicans. Nature of the data set: Antimicrobial activity against Candida albicans after 24 hrs by microdilution method. It counts as functional, organism-based.
Data set [10] has as its system Klebsiella pneumoniae. Nature of the data set: Antimicrobial activity against Klebsiella pneumoniae after 24 hrs by microdilution method. It counts as functional.
Data set [11] concerns KB 3-1. Described as §2. Type of data set: functional, cell-based.
Data set [12] is described as follows: as §1. The settings on record: mouse, L929 cells. Type of data set: cell-based.
The mark [13] stands for this setting: Homo sapiens, KB 3-1, 120 h, read-out: IC50.

In brackets after ≈: the same amount, converted by molar mass. Activity calls are given as the source filed them.

As for `Nc1ncc([C@@H]2[C@@H](CNC(=O)c3ccc[nH]3)[C@H](CNC(=O)c3cc(Br)c[nH]3)[C@H]2c2cnc(N)[nH]2)[nH]1`, the MIC result in [1], in [2], in data set [4], in [8], in data set [9] and in [10] was “inactive” each time. For the same compound, the IC90 result in data set [3] is “inactive”. Moreover, the IC50 entry in [3] (mcf7) was “Not Active”; in [5] (l929) it was “Not Active”; in data set [6] it was “Not Active”; in [7] (setting [13]), 29 µM. Also, the IC90 entry in data set [5] was “Not Active”; in [6], “Not Active”; in [7] (Homo sapiens, KB 3-1, 120 h), 92 µM.

For `NCCC(=O)c1cccc2c1N[C@H](CNC(=O)c1cc(Br)c(Br)[nH]1)[C@@H](c1cnc(N)[nH]1)O2`, the MIC entry in data set [1], in [2], in data set [4], in data set [8], in data set [9] and in data set [10] was “inactive” in each case. For the same compound, in data set [3], the IC90 entry was “inactive”. Besides, the IC50 result is “Not Active” in [3] (mcf7), “Not Active” in data set [5] (l929), “Not Active” in data set [6] and 44 µM in data set [7] (setting [13]). Besides, the IC90 entry in data set [5] is “Not Active”; in [6], “Not Active”; in data set [7] (Homo sapiens, KB 3-1, 120 h), not below 130 µM.

With `Nc1ncc(/C=C/CNC(=O)c2cc(Br)c(Br)[nH]2)[nH]1` [OROIDIN], the MIC entry in data set [1], in data set [2], in data set [4], in data set [8], in data set [9] and in data set [10] was “inactive” each time. The IC90 result in [3] and in data set [11] was “inactive” throughout. The IC50 entry in [3] (mcf7), in data set [5] (l929), in data set [6] and in data set [7] (kb 3-1) was “Not Active” each time. The IC90 entry in data set [5] and in [6] was “Not Active” each time.

As for `Nc1ncc([C@@H]2[C@@H](CNC(=O)c3cc(Br)c[nH]3)[C@H](CNC(=O)c3cc(Br)c[nH]3)[C@H]2c2cnc(N)[nH]2)[nH]1`, the MIC entry in [1], in data set [4], in [8] and in data set [9] was “inactive” in each case. Moreover, the MIC in data set [2] and in data set [10] was 32 µM (≈ 19.8 µg/mL) in each case. The IC90 in data set [3] (Homo sapiens, MCF7, 120 h) is not below 238 µM; in data set [6], “Not Active”; in data set [7] (Homo sapiens, KB 3-1, 120 h) it was 2390 µM. Further, the 50% inhibitory concentration (IC50) in data set [3] (Homo sapiens, MCF7, 120 h, read-out: IC50) is 238 µM; in data set [5] (Mus musculus, L929, 120 h, read-out: IC50), 193 µM; in data set [6] it was “Not Active”; in [7] (setting [13]) it was 80 µM. Besides, the IC90 at 120 h in [12] is not below 238 µM.

In the case of `C[n+]1cnc2[nH]c(=O)n(-c3nc(N)[nH]c3[C@@H]3[C@@H](CNC(=O)c4cc(Br)c[nH]4)[C@H](CNC(=O)c4cc(Br)c[nH]4)[C@H]3c3cnc(N)[nH]3)c2c1N`, the MIC entry in data set [1], in [2], in data set [4], in data set [8], in [9] and in data set [10] was “inactive” each time. In addition, the IC90 result in [3] and in data set [11] was “inactive” each time. Besides, the IC50 result in data set [3] (mcf7), in data set [5] (l929), in data set [6] and in data set [7] (kb 3-1) was “Not Active” throughout. For the same compound, the IC90 result in data set [5] and in [6] was “Not Active” throughout.
